Experimental data published in US4673684A, “Amide derivatives and 5-lipoxygenase inhibitors containing the same as an active ingredient” (Terumo Corporation, priority 1984, dated 1987).
Read-outs that look alike come from different tables or passages of the source.

Target: T1, 5-lipoxygenase (Mus musculus, UniProt P48999)
T1 construct: The supernatant is used as a 5-lipogenase enzyme solution; endogenous in cells
T1 sequence (P48999 1-674): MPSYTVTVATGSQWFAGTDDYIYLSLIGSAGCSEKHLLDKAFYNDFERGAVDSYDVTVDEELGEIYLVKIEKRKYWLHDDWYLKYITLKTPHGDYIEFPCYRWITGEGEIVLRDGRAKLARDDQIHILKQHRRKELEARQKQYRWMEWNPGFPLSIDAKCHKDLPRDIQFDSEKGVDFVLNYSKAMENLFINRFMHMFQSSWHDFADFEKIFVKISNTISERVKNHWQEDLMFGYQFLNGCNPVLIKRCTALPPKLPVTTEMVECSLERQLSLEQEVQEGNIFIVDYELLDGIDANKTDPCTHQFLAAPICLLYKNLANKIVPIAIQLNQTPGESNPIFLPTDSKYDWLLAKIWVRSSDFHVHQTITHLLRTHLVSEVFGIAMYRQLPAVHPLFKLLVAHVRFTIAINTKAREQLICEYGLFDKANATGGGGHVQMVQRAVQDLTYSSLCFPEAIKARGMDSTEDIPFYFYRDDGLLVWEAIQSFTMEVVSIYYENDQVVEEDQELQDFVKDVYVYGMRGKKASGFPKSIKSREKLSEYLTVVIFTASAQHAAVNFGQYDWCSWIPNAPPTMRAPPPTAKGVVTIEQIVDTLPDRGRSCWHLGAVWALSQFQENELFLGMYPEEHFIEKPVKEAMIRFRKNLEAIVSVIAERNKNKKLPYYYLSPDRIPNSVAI
Assay: 5-Lipoxygenase-inhibiting Activity (decrease in 5-HETE and LTB4 formed from radiolabelled arachidonic acid, enzyme solution from mouse mastcytoma cells P-815)
Format: biochemical
Procedure, shortened: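 Enzyme is sonicated 10,000 rpm supernatant of P-815 mouse mastocytoma cells, reacted 5 min at 37 °C with radiolabelled arachidonic acid, indomethacin and CaCl2 in pH 7.4 phosphate buffer. 5-HETE and LTB4 separated by TLC and counted by scintillation; IC50 or IC30 is concentration reducing product to 50% or 30% of control.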

[1] = 5-HETE and LTB4 formation, mouse mastcytoma P-815 enzyme solution, 37° C., 5 min, pH 7.4, with indomethacin, read-out: 50% Inhibitory concentration IC50

SMILES | IC50 [1] | IC50
COc1ccc(/C=C/C=C/C(=O)NCCN2CCN(C(=O)c3ccccc3N)CC2)cc1OC [Example 48, N-(o-aminobenzoyl)-N'-[{5-(3,4-dimethoxyphenyl)-2,4-pentadienoyl}aminoethyl]piperazine] | 6000 nM | 
COc1cc(/C=C/C(=O)NCCCN2CCC(OC(c3ccccc3)c3ccccc3)CC2)cc(OC)c1O [Example 126, 1-[3-{3-(3,5-dimethoxy-4-hydroxyphenyl)-2-propenoyl}aminopropyl]-4-benzhydroxypiperidine] | 10 nM | 
COc1cc(/C=C/C(=O)N2CCN(CCOC(C)(c3ccccc3)c3ccc(Cl)cc3)CC2)ccc1O (centres unmarked) [Example 102, N-[3-[3-methoxy-4-hydroxyphenyl)-2-propenoyl]-N'-[2-[1-phenyl-1-(p-chlorophenyl)ethoxy]ethyl]piperazine] | 200 nM | 
Cn1c(=O)c2c(ncn2CCCCN2CCN(C(=O)/C=C/c3ccc(O)c(O)c3)CC2)n(C)c1=O [Example 121, 7-[4-[4-{3-(3,4-dihydroxyphenyl)-2-propenoyl}piperazi-1-nyl]butyl]theophylline] | 5000 nM | 
COc1cc(/C=C/C=C/C(=O)N2CCN(CCCOC(C)(c3ccccc3)c3ccc(Cl)cc3)CC2)ccc1O (centres unmarked) [Example 111, N-[5-(3-methoxy-4-hydroxy)phenyl-2,4-pentadienoyl)-N'-[3-[1-phenyl-1-(p-chlorophenyl)ethoxy]propyl]piperazine] | 10 nM | 
COc1ccc(/C=C/C(=O)N2CCN(CCOC(c3ccccc3)c3ccccc3)CC2)cc1OC [Example 76, N-[3-(3,4-dimethoxyphenyl) -2-propenoyl]-N'-(2-benzhydroxyethyl)piperazine] |  | 20000 nM
COc1cc(/C=C/C=C/C(=O)N2CCN(CCCOC(c3ccccc3)c3ccccc3)CC2)ccc1O [Example 90, N-[5-(3-methoxy-4-hydroxyphenyl)-2,4-pentadienoyl]-N'-(3-benzhydroxypropyl)piperazine] | 60 nM | 
COc1cc(/C=C/C(=O)N2CCN(CCCn3cnc4c3c(=O)n(C)c(=O)n4C)CC2)cc(OC)c1OC [Example 127, 7-[3-[4-[3-(3,4,5-trimethoxyphenyl)-2-propenoyl]piperazi-1-nyl]-1-propyl]theopylline] | 30000 nM | 
COc1cc(/C=C/C=C/C(=O)N2CCN(CCCn3cnc4c3c(=O)n(C)c(=O)n4C)CC2)cc(OC)c1OC [Example 134, 7-[3-[4-[5-(3,4,5-trimethoxyphenyl)-2,4-pentadienoyl]piperazi-1-nyl]-1-propyl]theophylline] | 20000 nM | 
COc1cc(/C=C/C=C/C(=O)N2CCN(CCOC(c3ccccc3)c3ccccc3)CC2)ccc1O [Example 89, N-[5-(3-methoxy-4-hydroxyphenyl)-2,4-pentadienoyl]-N'-(2-benzhydroxyethyl)piperazine] |  | 60 nM
COc1cc(/C=C/C=C/C(=O)N2CCN(CCn3cnc4c3c(=O)n(C)c(=O)n4C)CC2)cc(OC)c1OC [Example 115, 7-[2-[4-[5-(3,4,5-trimethoxyphenyl)-2,4-pentadienoyl]piperazin-1-yl]ethyl]theophylline] | 20000 nM | 
COc1cc(/C=C/C=C/C(=O)N2CCN(CCCOC(c3ccccc3)c3ccccc3)CC2)cc(OC)c1O [Example 99] | 30 nM | 
O=C(/C=C/C=C/c1ccc(O)c(O)c1)NCCCN1CCN(C(c2ccccc2)c2ccccc2)CC1 [Example 44, N-benzhydryl-N'-[[5-{3,4-dihydroxyphenyl)-2,4-pentadienoyl}aminopropyl]piperazine] | 80 nM | 
COc1cc(/C=C/C(=O)NCCN2CCN(C(c3ccccc3)c3ccccc3)CC2)cc(OC)c1OC [Example 52, N-benzhydryl-N'-[3-(3',4',5'-trimethoxy)phenyl-2-propenoyl]aminoethylpiperazine] | 10000 nM | 
COc1cc(/C=C/C=C/C(=O)NCCCN2CCN(C(c3ccccc3)c3ccccc3)CC2)ccc1O [Example 38, N-[3-[5-(3-methoxy-4-hydroxyphenyl)-2,4-pentadienoyl]aminopropyl]-N'-benzhydrylpiperazine] | 200 nM | 
COc1cc(/C=C/C=C/C(=O)NCCN2CCN(C(c3ccccc3)c3ccccc3)CC2)cc(OC)c1OC [Example 59, N-[2-[5-(3,4,5-trimethoxyphenyl)-2,4-pentadienoyl]aminoethyl]-N'-benzhydrylpiperazine] | 2000 nM | 
COc1cc(/C=C/C=C/C(=O)N2CCN(CCOC(C)(c3ccccc3)c3ccc(Cl)cc3)CC2)cc(OC)c1O (centres unmarked) [Example 113, N-[5-(3,5-dimethoxy-4-hydroxyphenyl]-2,4-pentadienoyl]-N'-[2-[1-phenyl-1-(p-chlorophenyl)ethoxy]ethyl]piperazine] | 20 nM | 
CC(OCCCN1CCN(C(=O)/C=C/c2ccc(O)c(O)c2)CC1)(c1ccccc1)c1ccc(Cl)cc1 (centres unmarked) [Example 101, N-[3-(3,4-dihydroxyphenyl)-2-propenoyl]-N'-[3-[1-phenyl-1-(p-chlorophenyl)ethoxy]propyl]piperazine] | 10 nM | 
COc1cc(/C=C/C=C/C(=O)NCCn2cnc3c2c(=O)n(C)c(=O)n3C)ccc1O [Example 88] | 4000 nM | 
O=C(/C=C/c1ccc(O)c(O)c1)NCCCN1CCN(C(c2ccccc2)c2ccccc2)CC1 [Example 37, N-benzhydryl-N'-[{3-(3,4-dihydroxyphenyl)-2-propenoyl}-aminopropyl]piperazine] | 30 nM | 
COc1cc(/C=C/C(=O)N2CCN(CCCOC(C)(c3ccccc3)c3ccc(Cl)cc3)CC2)cc(OC)c1O (centres unmarked) [Example 106, N-[3-(3,5-dimethoxy-4-hydroxy)phenyl-2-propenoyl]-N'-[3-[1-phenyl-1-(p-chlorophenyl)ethoxy]propyl]piperazine] | 10 nM | 
COc1ccc(/C=C/C(=O)NCCn2cnc3c2c(=O)n(C)c(=O)n3C)cc1OC [Example 75, 7-[2-[3-(3,4-dimethoxyphenyl) -2-porpenoyl]aminoethyl]theophylline] | 20000 nM | 

Second part, led by results:

IC50 [1] | SMILES | IC50
6000 nM | COc1cc(/C=C/C(=O)NCCn2cnc3c2c(=O)n(C)c(=O)n3C)ccc1O [Example 69, 7-[2-[3-(3-methoxy-4-hydroxy)phenyl-2-propenoyl]aminoethyl]theophylline] | 
2000 nM | COc1cc(/C=C/C=C/C(=O)NCCN2CCN(C(=O)c3ccccc3N)CC2)ccc1O [Example 42, N-(o-aminobenzoyl)-N'-[{5-(3-methoxy-4-hydroxyphenyl)-2,4-pentadienoyl}aminoethyl]piperazine] | 
400 nM | COc1cc(/C=C/C=C/C(=O)Nc2ccccc2C(=O)O)cc(OC)c1O [Example 57, N-{5-(3,5-dimethoxy-4-hydroxyphenyl)-2,4-pentadienoyl}anthranilic acid] | 
500 nM | O=C(/C=C/c1ccc(O)c(O)c1)NCCCCNC(=O)/C=C/c1ccc(O)c(O)c1 [Example 7, N,N'-bis-[(3,4-dihydroxyphenyl)-2-propenoyl]-1,4-diaminobutane] | 
200 nM | COc1cc(/C=C/C=C/C(=O)NCc2c(COC(=O)c3ccc(C)cc3)cnc(C)c2O)ccc1O [Example 41, 4-[5-(3-methoxy-4-hydroxyphenyl)-2,4-pentadienoyl]-aminomethyl-3-hydroxy-2-methyl-5-toluoxymethylpyridine] | 
50 nM | COc1cc(/C=C/C(=O)NCCOC(c2ccccc2)c2ccccc2)cc(OC)c1O [Example 81, 2-[3-(3,5-dimethoxy-4-hydroxy]phenyl-2-propenoyl) aminoethyl benzhydryl ether] | 
20 nM | COc1cc(/C=C/C=C/C(=O)NCCCCN2CCN(C(c3ccccc3)c3ccc(Cl)cc3)CC2)cc(OC)c1O (centres unmarked) [Example 96, N-p-chlorobenzhydryl-N'-5-(3,5-dimethoxy-4-hydroxy)phenyl-2,4-pentadienlylaminobutylpiperazine] | 
20000 nM | COc1cc(/C=C/C(=O)NCCCCNC(=O)c2ccccc2N)ccc1O [Example 35, N-3-[3-methoxy-4-hydroxy]pyenyl-2-butenoyl-N'-(2-amino)benzoylptolesine] | 
2000 nM | COc1cc(/C=C/C(=O)NCCCCNC(=O)/C=C/c2ccc(O)c(OC)c2)ccc1O [Example 4, N,N'-bis-{3-(3-methoxy-4-hydroxyphenyl)-2-propenoyl}-1,4-diaminobutane] | 
6000 nM | COc1cc(/C=C/C=C/C(=O)NCCCCNC(C)=O)ccc1O [Example 18, N-{5-(3-methoxy-4-hydroxyphenyl)-2,4-pentadienoyl}-N'-acetyl-1,4-diaminobutane] | 
